Source: patent publication US7176320B2, “Benzimidazole derivative” (Teijin Limited, priority 2000, dated 2007)

Assays:
[1] = In vitro metabolism test using liver microsomes (Ms); type: in vitro ADME; settings: liver microsomes 1.0 mg/mL, substrate 5.0 μM, NADPH 1.0 mM, 37° C.; for MR (metabolic rate at its maximum): pH 7.4
Method: The metabolic rate was determined from the decrease in the amount of the unchanged form at each reaction time and the reaction time based on assigning a value of 100% to the amount of the unchanged form at the initial concentration (reaction time: 0 minutes), and the metabolic rate at the time the metabolic rate reached a maximum was evaluated as the MR value. M=(substrate concentration at reaction time: 0 min.−substrate concentration after reaction)÷reaction time÷protein concentration (nmol/min./mg protein)

[2] = target: T1, recombinant human mast cell chymase (Homo sapiens, UniProt P23946); experiment: Measurement of inhibition of enzyme activity of recombinant human mast cell chymase; type: biochemical; settings: active human mast cell chymase, substrate succinyl-alanyl-histidyl-prolyl-phenylalanylparanitroanilide, 5 minutes at room temperature, absorbance 405 nm; read-out: inhibitory activity IC50
T1 construct: made in house; host or cells: insect cells (Th5) infected with recombinant baculovirus
T1 sequence (P23946 22-247): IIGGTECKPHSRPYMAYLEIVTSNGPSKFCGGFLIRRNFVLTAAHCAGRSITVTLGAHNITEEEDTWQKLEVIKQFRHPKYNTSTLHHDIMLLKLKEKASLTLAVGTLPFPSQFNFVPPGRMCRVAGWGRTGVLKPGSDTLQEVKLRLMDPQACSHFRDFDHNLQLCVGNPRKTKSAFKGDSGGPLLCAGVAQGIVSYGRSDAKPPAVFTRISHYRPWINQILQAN
Method: Recombinant human mast cell chymase was prepared in accordance with the report of Urata, et al. (Journal of Biological Chemistry, Vol. 266, p. 17173 (1991)). Namely, human mast cell chymase was purified by heparin sepharose (Pharmacia) from a culture supernatant of insect cells (Th5) infected with recombinant baculovirus containing cDNA coding for human mast cell chymase. Moreover, after activating in accordance with the report of Murakami, et al. (Journal of Biological Chemistry, Vol. 270, p. 2218 (1995)), the human mast cell chymase was purified with heparin sepharose to obtain active human mast cell chymase.
After adding 2 μl of DMSO solution containing a compound of the present invention to 50 μl of Buffer A (0.5–3.0 M NaCl, 50 mM Tris-HCl, pH 8.0) containing 1–5 ng of the active human mast cell chymase obtained in Example 16, 50 μl of Buffer A containing 0.5 mM succinyl-alanyl-histidyl-prolyl-phenylalanylparanitroanilide (Bacchem) as substrate were added and allowed to react for 5 minutes at room temperature. The changes over time in absorbance at 405 nm were measured to investigate inhibitory activity.

[3] = Measurement of blood concentration during administration by intragastric forced feeding to rats; type: in vivo, rat; settings: male SD rats, fasting, 30 mg/kg, serum
Method: The compounds indicated with the above compound nos. 39, 52 and 244 were administered by intragastric forced feeding to male SD rats while fasting at a dose of 30 mg/kg, after which blood samples were collected immediately after administration and at 30 minutes and 1, 2 and 4 hours after administration. Following collection of blood samples, where samples were immediately separated into serum components, the compound of the present invention was extracted by ordinary solid phase extraction methods, and the resulting samples were analyzed by HPLC using an ODS column (32% acetonitrile-water-0.05% TFA was used for the mobile phase for compound nos. 52 and 244, while 47% acetonitrile-water-10 mM ammonium acetate buffer (pH 4.0) was used for the mobile phase for compound no. 39) followed by measurement of the amount of the unchanged form.

[4] = 30 minutes after administration

Row | SMILES | Percentage of substrate remaining after 30 min. [1] [%] | MR (metabolic rate at its maximum) [1] [nmol/min./mg protein] | IC50 [2] [nM] | further results
1 | Cc1cc2nc(SCCCC(=O)O)n(Cc3cn(C)c4cccc(C)c34)c2cc1C [Compound No. 519] | 52.9 | 0.102 | 1 to 10 | –
2 | O=C(O)CCCSc1nc2cc(Cl)c(Cl)cc2n1Cc1csc2ccccc12 [compound 628] | – | – | 10 to 100 | –
3 | Cc1ccc2scc(Cn3c(SCCCC(=O)O)nc4cc(C)c(C)cc43)c2c1 [compound 536] | 56.3 | 0.131 | – | –
4 | COc1ccc2c(c1)nc(SCCCC(=O)O)n2Cc1csc2ccccc12 [Compound No. 148, 4-(1-((benzothiophene-3-yl)methyl)-5-methoxybenzimidazole-2-ylthio)butanoic acid] | – | – | 1 to 10 | –
5 | Cc1cccc2c1c(Cn1c(SCCCC(=O)O)nc3ccccc31)cn2C [Compound No. 39] | 80.1 | 0 | 1 to 10 | concentration at 30 min ([3]; rat, oral, 30 minutes after administration, read-out: Blood concentration of the unchanged form After 30 min.): 16100 ng/mL; concentration at 4 h ([3]; rat, oral, 4 hours after administration, read-out: Blood concentration of the unchanged form After 4 hr.): 6300 ng/mL
6 | COc1ccc2nc(SCCCC(=O)O)n(Cc3csc4cccc(C)c34)c2c1 [Compound No. 1114, 4-(1-((4-methylbenzothiophene-3-yl)methyl)-6-methoxybenzimidazole-2-ylthio)butanoic acid] | – | – | 1 to 10 | –
7 | Cc1cc2nc(SCCCC(=O)O)n(Cc3cn(C)c4ccccc34)c2cc1C [compound 514] | 48.7 | 0.087 | – | –
8 | O=C(O)CCCSc1nc2ccccc2n1Cc1csc2ccccc12 [Compound No. 52] | 47.5 | 0.331 | – | Blood concentration of the unchanged form After 30 min. [3, 4]: 60500 ng/mL; Blood concentration of the unchanged form After 4 hr. ([3]; 4 hours after administration): 12700 ng/mL
9 | COc1ccc2c(c1)nc(SCCCC(=O)O)n2Cc1csc2cccc(C)c12 [Compound No. 154, 4-(1-((4-methylbenzothiophene-3-yl)methyl)-5-methoxybenzimidazole-2-ylthio)butanoic acid] | – | – | 1 to 10 | –
10 | COc1ccc2c(c1)nc(SCCCC(=O)O)n2Cc1cn(C)c2cccc(C)c12 [Compound No. 135] | 55.2 | 0.097 | 10 to 100 | –
11 | COc1ccc2c(c1)nc(SCCCC(=O)O)n2Cc1csc2ccc(C)cc12 [Compound No. 152, 4-(1-((5-methylbenzothiophene-3-yl)methyl)-5-methoxybenzimidazole-2-ylthio)butanoic acid] | – | – | 10 to 100 | –
12 | N#Cc1ccc2c(c1)nc(SCCCC(=O)O)n2Cc1csc2ccccc12 [Compound No. 244] | 57.9 | 0.211 | – | Blood concentration of the unchanged form After 30 min. [3, 4]: 16500 ng/mL; Blood concentration of the unchanged form After 4 hr. ([3]; 4 hours after administration): 8900 ng/mL
13 | Cn1cc(Cn2c(SCCCC(=O)O)nc3ccccc32)c2ccccc21 [Compound No. 34, 4-(1-((1-methylindole-3-yl)methyl)benzimidazole-2-ylthio)butanoic acid] | 60.3 | 0.260 | 10 to 100 | –
14 | Cc1ccc2scc(Cn3c(SCCCC(=O)O)nc4ccccc43)c2c1 [Compound No. 56] | 41.2 | 0.111 | – | –
15 | COc1ccc2nc(SCCCC(=O)O)n(Cc3csc4ccc(C)cc34)c2c1 [Compound No. 1112, 4-(1-((5-methylbenzothiophene-3-yl)methyl)-6-methoxybenzimidazole-2-ylthio)butanoic acid] | – | – | 1 to 10 | –
16 | Cc1cc2nc(SCCCC(=O)O)n(Cc3csc4ccccc34)c2cc1C [Compound No. 532] | 36.2 | 0.277 | 1 to 10 | –
17 | Cc1ccc2nc(SCCCC(=O)O)n(Cc3csc4ccccc34)c2c1 [Compound No. 436] | – | – | 10 to 100 | –
